Among the data in the Kinase Knowledgebase extract (Sharma et al. 2016) are IC50 and Ki values, retold here.

Experiment [1] addresses MAPK14 (human) (UniProt Q16539). Put plainly: Inhibition of TNF Production in Whole Blood.
Experiment [2] has the same target. Put plainly: Inhibition of IL-1 Production in LPS-Stimulated PBMCs. Particulars: pbmc.
For experiment [3] the target is unchanged. Put plainly: Inhibition of IL-6 Production in Whole Blood.
Experiment [4] shares this target. Kind of experiment: Inhibition of IL-1 Production in Whole Blood.
The target is the same in experiment [5]. Kind of experiment: Inhibition of TNF-alpha Production in LPS-Stimulated PBMCs. The conditions noted are these: pbmc.
The target is the same in experiment [6]. Put plainly: Inhibition of MAPK14 Kinase Activity.

MAPK14 (human), sequence (Q16539 whole entry, looked up): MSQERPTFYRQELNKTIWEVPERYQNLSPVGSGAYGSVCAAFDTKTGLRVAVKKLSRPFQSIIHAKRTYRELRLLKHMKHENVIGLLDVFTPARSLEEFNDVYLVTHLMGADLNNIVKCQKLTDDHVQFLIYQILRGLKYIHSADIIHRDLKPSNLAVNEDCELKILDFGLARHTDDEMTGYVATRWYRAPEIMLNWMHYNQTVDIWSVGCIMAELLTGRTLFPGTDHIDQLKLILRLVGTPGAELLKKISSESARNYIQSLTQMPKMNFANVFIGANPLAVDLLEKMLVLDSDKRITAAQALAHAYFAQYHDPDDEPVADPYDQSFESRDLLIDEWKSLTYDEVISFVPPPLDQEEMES

By IC50 is commonly meant the concentration at which inhibition is half-maximal. High values mean a need for much substance, low ones inhibition by little substance. Regarding `NC(=O)C(c1cccc(-c2ccccc2)n1)c1cc(Cl)ccc1Cl` (stereo unspecified), the IC50 against MAPK14 (human) [1] was above 500 nM; against MAPK14 (human) [2], 100 to 500 nM; on MAPK14 (human) [3], above 500 nM; on MAPK14 (human) [4] it was above 500 nM; against MAPK14 (human) [5] it was above 500 nM.
Turning to `CNCc1ccccc1-c1cccc(C(C(N)=O)c2c(Cl)cccc2Cl)n1` (stereo unspecified), the IC50 on MAPK14 (human) [1], on MAPK14 (human) [2], against MAPK14 (human) [3], against MAPK14 (human) [4] and on MAPK14 (human) [5] was above 500 nM throughout.
Take `O=C1NCN2N=C(Sc3ccc(F)cc3F)C=CC2=C1c1cc2c(cc1Cl)OCO2`: the IC50 against MAPK14 (human) [1] is below 250 nM; at MAPK14 (human) [2], below 100 nM; on MAPK14 (human) [3], below 250 nM; on MAPK14 (human) [4], below 250 nM; at MAPK14 (human) [5], below 100 nM; on MAPK14 (human) [6], below 100 nM.
Take `Nc1ccc(Cl)c(-c2c(=O)ncn3nc(Sc4ccc(F)cc4)ccc23)c1Cl`: the 50% inhibitory concentration (IC50) at MAPK14 (human) [1] was above 500 nM; against MAPK14 (human) [2], 100 to 500 nM; against MAPK14 (human) [3], above 500 nM; on MAPK14 (human) [4] it was above 500 nM; against MAPK14 (human) [5] it was above 500 nM; at MAPK14 (human) [6], 100 to 1000 nM.
Take `Cc1cc(F)ccc1SC1=NN2CNC(=O)C(c3c(F)cccc3F)=C2C=C1`: the 50% inhibitory concentration (IC50) at MAPK14 (human) [2] was 100 to 500 nM; on MAPK14 (human) [5], above 500 nM; against MAPK14 (human) [6], below 100 nM.
As usually defined, the Ki is the dissociation constant of the complex between target and ligand, obtained from inhibition or displacement. The low end stands for tighter binding, the high end for weaker binding. With `O=c1ncn2nc(Sc3ccccc3)ccc2c1-c1ccccc1`, the inhibition constant (Ki) at MAPK14 (human) [6] is above 20000 nM.
Turning to `COc1ccc(-c2c(=O)ncn3nc(Sc4ccc(F)cc4)ccc23)cc1OC`, the half-inhibitory concentration (IC50) against MAPK14 (human) [2] is above 500 nM; on MAPK14 (human) [5] it was above 500 nM; on MAPK14 (human) [6] it was 100 to 1000 nM.
For `COC(=O)CCc1ccc(SC2=NN3CNC(=O)C(c4c(Cl)cccc4Cl)=C3C=C2C)cc1`, the IC50 on MAPK14 (human) [1] was above 500 nM; at MAPK14 (human) [2], 100 to 500 nM; against MAPK14 (human) [3], above 500 nM; against MAPK14 (human) [4], above 500 nM; against MAPK14 (human) [5], above 500 nM.
Consider `CCc1cc(Cl)c(C2=C3C=CC(Sc4ccc(F)cc4)=NN3CNC2=O)cc1O`, for which the IC50 against MAPK14 (human) [1] is above 500 nM; on MAPK14 (human) [2], 100 to 500 nM; against MAPK14 (human) [3], above 500 nM; at MAPK14 (human) [4] it was above 500 nM; against MAPK14 (human) [5], above 500 nM; on MAPK14 (human) [6], below 100 nM.
`COc1ccc(-c2c(=O)ncn3nc(Sc4ccc(F)cc4)ccc23)c(Cl)c1OC`: the IC50 on MAPK14 (human) [1], at MAPK14 (human) [2], against MAPK14 (human) [3], against MAPK14 (human) [4] and against MAPK14 (human) [5] was above 500 nM in each case.
`NC(=O)C(c1cccc(-c2ccccc2CN2CCNCC2)n1)c1c(Cl)cccc1Cl` (stereo unspecified): the concentration for half-maximal inhibition (IC50) on MAPK14 (human) [1], at MAPK14 (human) [2], against MAPK14 (human) [3], at MAPK14 (human) [4] and against MAPK14 (human) [5] was above 500 nM in each case.
As for `CN(C)C=Nc1ccc(-c2c(=O)ncn3nc(Sc4cc(F)ccc4Cl)ccc23)c(Cl)c1`, the IC50 against MAPK14 (human) [2] is 100 to 500 nM; on MAPK14 (human) [5], above 500 nM; on MAPK14 (human) [6] it was 100 to 1000 nM.
`COC(=O)c1ccccc1Sc1ccc2c(-c3c(Cl)cccc3Cl)c(=O)ncn2n1`: the IC50 at MAPK14 (human) [1] is above 500 nM; against MAPK14 (human) [2], below 100 nM; at MAPK14 (human) [4], above 500 nM; at MAPK14 (human) [5], 100 to 500 nM.
In the case of `CC(C)c1ccccc1Sc1ccc2c(-c3c(Cl)cccc3Cl)c(=O)ncn2n1`, the IC50 against MAPK14 (human) [2] and at MAPK14 (human) [5] was above 500 nM each time.
As to `NC(=O)Nc1cc(F)ccc1SC1=NN2CNC(=O)C(c3c(Cl)cccc3Cl)=C2C=C1`, the IC50 against MAPK14 (human) [2] and against MAPK14 (human) [5] was above 500 nM in each case.
For the compound `O=C(O)c1cc(F)ccc1Sc1ccc2c(-c3c(Cl)cccc3Cl)c(=O)ncn2n1`, the IC50 was above 500 nM on MAPK14 (human) [2], above 500 nM against MAPK14 (human) [5] and above 1000 nM on MAPK14 (human) [6].
For the compound `O=c1ncn2nc(Sc3ccccc3)ccc2c1-c1ccc(Cl)c(Cl)c1`, the half-inhibitory concentration (IC50) against MAPK14 (human) [2] and against MAPK14 (human) [5] was above 500 nM each time.
